Reference: the supplement of paper PMC10307832

Legend:
Experiment in all cases: relative viability (nuclei count vs DMSO), 5 days (fraction); higher = more cells survive
[1] = compound: CC1=NN=C(O1)C2=NN=C(C=C2)N3CCC(CC3)OC4=C(C=CC(=C4)F)Cl + CS(=O)(=O)CCNCc1ccc(-c2ccc3ncnc(Nc4ccc(OCc5cccc(F)c5)c(Cl)c4)c3c2)o1 [Lapatinib] (partner 2 µM)
Outline: (§1)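 Relative viability was taken as the ratio of nuclei in treated wells to nuclei in vehicle wells. Lung cancer cell lines in 1536-well plates received compounds by pin tool one day after seeding, either one drug alone or a fixed anchor-drug dose plus five library-drug doses (not always all listed) in √10 steps. Nuclei were counted on 4× images after 5 days of treatment, and values are medians of duplicate plates.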

[2] = compound: CC1=NN=C(O1)C2=NN=C(C=C2)N3CCC(CC3)OC4=C(C=CC(=C4)F)Cl + CC(=O)c1c(C)c2cnc(Nc3ccc(N4CCNCC4)cn3)nc2n(C2CCCC2)c1=O [Palbociclib] (partner 0.5 µM)
Outline: as §1

[3] = compound: CC1=NN=C(O1)C2=NN=C(C=C2)N3CCC(CC3)OC4=C(C=CC(=C4)F)Cl + CC1(C)CCC(c2ccc(Cl)cc2)=C(CN2CCN(c3ccc(C(=O)NS(=O)(=O)c4ccc(N[C@H](CCN5CCOCC5)CSc5ccccc5)c(S(=O)(=O)C(F)(F)F)c4)cc3)CC2)C1 [Navitoclax] (partner 0.5 µM)
Outline: as §1

Tosedostat + Olaparib = compound: CC(C)C[C@@H](C(=O)N[C@H](C(=O)OC1CCCC1)c1ccccc1)[C@H](O)C(=O)NO [Tosedostat] + O=C(c1cc(Cc2n[nH]c(=O)c3ccccc23)ccc1F)N1CCN(C(=O)C2CC2)CC1 [Olaparib] (partner 8 µM)
Outline: as §1

UMC-11
relative viability ([1]; first compound 0.253 µM): 0.641
relative viability ([1]; first compound 0.8 µM): 0.645
relative viability ([1]; first compound 2.53 µM): 0.777
relative viability ([1]; first compound 8 µM): 0.595
relative viability ([2]; first compound 0.253 µM): 0.303
relative viability ([2]; first compound 0.8 µM): 0.271
relative viability ([2]; first compound 2.53 µM): 0.3
relative viability ([2]; first compound 8 µM): 0.39
relative viability ([3]; first compound 0.253 µM): 0.287
relative viability ([3]; first compound 0.8 µM): 0.344
relative viability ([3]; first compound 2.53 µM): 0.315
relative viability ([3]; first compound 8 µM): 0.317
relative viability (Tosedostat + Olaparib; first compound 0.02 µM): 0.374
relative viability (Tosedostat + Olaparib; first compound 0.06325 µM): 0.336
relative viability (Tosedostat + Olaparib; first compound 0.2 µM): 0.287
relative viability (Tosedostat + Olaparib; first compound 0.6325 µM): 0.273
relative viability (Tosedostat + Olaparib; first compound 2 µM): 0.327
